Data taken from patent US20220073536A1 (Rigel Pharmaceuticals, Inc., priority 2003, published 2022).
Counter-ions that a name gives are not always drawn. Like-named read-outs stand apart in the source and are kept apart here.

Tested on: cultured human mast cells (CHMC)
Assay: CHMC low cell density IgE activation: tryptase assay
Format: cell-based
Summary of the method: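 Fluorogenic readout of tryptase released into the supernatant (30 min substrate incubation, room temperature) measures degranulation. Cells were plated at low density (1000–1500/well, varied by donor) and triggered with anti-IgE for 30 min at 37 °C.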

[1] = low cell density CHMC, IgE activation, tryptase release, 3 pt, read-out: LD Tryptase, CHMC, IgE, 3 pt
[2] = low cell density CHMC, IgE activation, tryptase release, 8 pt, read-out: LD Tryptase, CHMC, IgE, 8 pt
[3] = Homo sapiens, Mast cell, low cell density CHMC, IgE activation, tryptase release, 8 pt, read-out: LD Tryptase, CHMC, IgE, 8 pt
[4] = Homo sapiens, Mast cell, low cell density CHMC, IgE activation, tryptase release, 3 pt, read-out: LD Tryptase, CHMC, IgE, 3 pt
[5] = Homo sapiens, Mast cell, low cell density, IgE activation, 3 pt, read-out: LD Tryptase, CHMC, IgE, 3 pt
[6] = Homo sapiens, Mast cell, low cell density, IgE activation, 8 pt, read-out: LD Tryptase, CHMC, IgE, 8 pt

Row | IC50 [1] [µM] | IC50 [2] [µM] | IC50 [3] [µM] | SMILES | further results
1 | < 10 | < 10 |  | Cn1nc(N)c2cc(Nc3ncc(F)c(Nc4ccc5c(n4)NC(=O)C(C)(C)O5)n3)ccc21 [Compound 837, N2-(3-Amino-1-methylindazol-5-yl)-N4-(2,2-dimethyl-3-oxo-4H-5-pyrid[1,4]oxazin-6-yl)-5-fluoro-2,4-pyrimidinediamine] | 
2 | < 10 | < 10 |  | CC1(C)Oc2ccc(Nc3nc(Nc4ccc5c(cnn5CCCO)c4)ncc3F)nc2NC1=O [Compound 838, N4-(2,2-Dimethyl-3-oxo-4H-5-pyrid[1,4]oxazin-6-yl)-5-fluoro-N2-[1-(3-hydroxypropyl)indazol-5-yl]-2,4-pyrimidinediamine] | 
3 | < 10 | < 10 |  | COCCCn1ncc2ccc(Nc3ncc(F)c(Nc4ccc5c(n4)NC(=O)C(C)(C)O5)n3)cc21 [Compound 839, N4-(2,2-Dimethyl-3-oxo-4H-5-pyrid[1,4]oxazin-6-yl)-5-fluoro-N2-[1-(3-methoxypropyl)indazol-6-yl]-2,4-pyrimidinediamine] | 
4 |  |  | < 10 | COc1ccc(Nc2nc(Nc3ccc4c(cnn4CCCNS(=O)(=O)C(F)(F)F)c3)ncc2F)cc1Cl [Compound 840, N4-(3-Chloro-4-methoxyphenyl)-5-fluoro-N2-[1-[3-(N-trifluoromethylsulfonylamino)propyl]indazol-5-yl]-2,4-pyrimidinediamine] | 
5 |  |  | < 10 | O=S(=O)(NCCCn1ncc2cc(Nc3ncc(F)c(Nc4ccc(Cl)c(Cl)c4)n3)ccc21)C(F)(F)F [Compound 841, N4-(3,4-Dichlorophenyl)-5-fluoro-N2-[1-[3-(N-trifluoromethylsulfonylamino)propyl]indazol-5-yl]-2,4-pyrimidinediamine] | 
6 |  |  | < 10 | CC1(C)Oc2ccc(Nc3nc(Nc4ccc5c(cnn5CCCNS(=O)(=O)C(F)(F)F)c4)ncc3F)cc2NC1=O [Compound 842, N4-(2,2-Dimethyl-3-oxo-4H-benz[1,4]oxazin-6-yl)-5-fluoro-N2-[1-[3-(N-trifluoromethylsulfonylamino)propyl]indazol-5-yl]-2,4-pyrimidinediamine] | 
7 |  |  | < 10 | C[C@@H]1Oc2ccc(Nc3nc(Nc4ccc5c(cnn5CCCNS(=O)(=O)C(F)(F)F)c4)ncc3F)cc2NC1=O [Compound 843, (S)-5-Fluoro-N4-(2-methyl-3-oxo-2H,4H-benz[1,4]oxazin-6-yl)-N2-[1-[3-(N-trifluoromethylsulfonylamino)propyl]indazol-5-yl]-2,4-pyrimidinediamine] | 
8 |  | > 10 |  | CC1(C)Oc2ccc(Nc3nc(Nc4ccc5c(cnn5CCCNS(=O)(=O)C(F)(F)F)c4)ncc3F)nc2NC1=O [Compound 844, N4-(2,2-Dimethyl-3-oxo-4H-5-pyrid[1,4]oxazin-6-yl)-5-fluoro-N2-[1-[3-(N-trifluoromethylsulfonylamino)propyl]indazol-5-yl]-2,4-pyrimidinediamine] | 
9 |  | < 10 |  | CCOP(=O)(NCCCn1ncc2cc(Nc3ncc(F)c(Nc4ccc(OC)c(Cl)c4)n3)ccc21)OCC [Compound 847, N4-(3-Chloro-4-methoxyphenyl)-N2-[1-(3-(diethylphosphonamido)propyl]indazol-5-yl]-5-fluoro-2,4-pyrimidinediamine] | 
10 |  |  | < 10 | COc1ccc(Nc2nc(Nc3ccc4c(cnn4CCCNC(=O)C(C)(C)C)c3)ncc2F)cc1Cl [Compound 848, N4-(3-Chloro-4-methoxyphenyl)-5-fluoro-N2-[1-(3-pivalamidopropyl)indazol-5-yl]-2,4-pyrimidinediamine] | 
11 |  |  | < 10 | CC(C)(C)C(=O)NCCCn1ncc2cc(Nc3ncc(F)c(Nc4ccc(Cl)c(Cl)c4)n3)ccc21 [Compound 849, N4-(3,4-Dichlorophenyl)-5-fluoro-N2-[1-(3-pivalamidopropyl)indazol-5-yl]-2,4-pyrimidinediamine] | 
12 |  |  | < 10 | CC(C)(C)C(=O)NCCCn1ncc2cc(Nc3ncc(F)c(Nc4ccc5c(c4)NC(=O)C(C)(C)O5)n3)ccc21 [Compound 850, N4-(2,2-Dimethyl-3-oxo-4H-benz[1,4]oxazin-6-yl)-5-fluoro-N2-[1-(3-pivalamidopropyl)indazol-5-yl]-2,4-pyrimidinediamine] | 
13 |  |  | < 10 | C[C@@H]1Oc2ccc(Nc3nc(Nc4ccc5c(cnn5CCCNC(=O)C(C)(C)C)c4)ncc3F)cc2NC1=O [Compound 851, 5-Fluoro-(S)-N4-(2-methyl-3-oxo-4H-benz[1,4]oxazin-6-yl)-N2-[1-(3-pivalamidopropyl)indazol-5-yl]-2,4-pyrimidinediamine] | 
14 |  | < 10 |  | CC(C)(C)C(=O)NCCCn1ncc2cc(Nc3ncc(F)c(Nc4ccc5c(n4)NC(=O)C(C)(C)O5)n3)ccc21 [Compound 852, N4-(2,2-Dimethyl-3-oxo-4H-5-pyrido[1,4]oxazin-6-yl)-5-fluoro-N2-[1-(3-pivalamidopropyl)indazol-5-yl]-2,4-pyrimidinediamine] | 
15 | < 10 | < 10 |  | COc1ccc(Nc2nc(Nc3ccc4c(cnn4CCCN4C(=O)CCC4=O)c3)ncc2F)cc1Cl [Compound 853, N4-(3-Chloro-4-methoxyphenyl)-5-fluoro-N2-[1-[3-(N-succinimidopropyl)]indazol-5-yl]-2,4-pyrimidinediamine] | 
16 | < 10 | > 10 |  | O=C1CCC(=O)N1CCCn1ncc2cc(Nc3ncc(F)c(Nc4ccc(Cl)c(Cl)c4)n3)ccc21 [Compound 854, N4-(3,4-Dichlorophenyl)-5-fluoro-N2-[1-[3-(N-succinimidopropyl)]indazol-5-yl]-2,4-pyrimidinediamine] | 
17 | < 10 | < 10 |  | CC1(C)Oc2ccc(Nc3nc(Nc4ccc5c(cnn5CCCN5C(=O)CCC5=O)c4)ncc3F)cc2NC1=O [Compound 855, N4-(2,2-Dimethyl-3-oxo-4H-benz[1,4]oxazin-6-yl)-5-fluoro-N2-[1-[3-(N-succinimidopropyl)]indazol-5-yl]-2,4-pyrimidinediamine] | 
18 | < 10 | < 10 |  | C[C@@H]1Oc2ccc(Nc3nc(Nc4ccc5c(cnn5CCCN5C(=O)CCC5=O)c4)ncc3F)cc2NC1=O [Compound 856, (S)-5-Fluoro-N4-(2-methyl-3-oxo-2H,4H-benz[1,4]oxazin-6-yl)-N2-[1-[3-(N-succinimidopropyl)]indazol-5-yl]-2,4-pyrimidinediamine] | 
19 | < 10 | < 10 |  | CC1(C)Oc2ccc(Nc3nc(Nc4ccc5c(cnn5CCCN5C(=O)CCC5=O)c4)ncc3F)nc2NC1=O [Compound 857, N4-(2,2-Dimethyl-3-oxo-4H-5-pyrid[1,4]oxazin-6-yl)-5-fluoro-N2-[1-[3-(N-succinimidopropyl)]indazol-5-yl]-2,4-pyrimidinediamine] | 
20 |  |  | < 10 | COc1ccc(Nc2nc(Nc3ccc4c(cnn4CCCN4C(=O)CCCC4=O)c3)ncc2F)cc1Cl [Compound 858, N4-(3-Chloro-4-methoxyphenyl)-N2-[1-[3-(2,6-dioxopiperidino]propyl)indazol-5-yl]-5-fluoro-2,4-pyrimidinediamine] | IC50 [4]: < 10 µM
21 |  |  | < 10 | O=C1CCCC(=O)N1CCCn1ncc2cc(Nc3ncc(F)c(Nc4ccc(Cl)c(Cl)c4)n3)ccc21 [Compound 859, N4-(3,4-Dichlorophenyl)-N2-[1-[3-(2,6-dioxopiperidino)propyl]indazol-5-yl]-5-fluoro-2,4-pyrimidinediamine] | IC50 [4]: < 10 µM
22 |  |  | < 10 | CC1(C)Oc2ccc(Nc3nc(Nc4ccc5c(cnn5CCCN5C(=O)CCCC5=O)c4)ncc3F)cc2NC1=O [Compound 860, N4-(2,2-Dimethyl-3-oxo-4H-benz[1,4]oxazin-6-yl)-N2-[1-[3-(2,6-dioxopiperidino]propyl)indazol-5-yl]-5-fluoro-2,4-pyrimidinediamine] | IC50 [4]: < 10 µM
23 |  |  | < 10 | C[C@@H]1Oc2ccc(Nc3nc(Nc4ccc5c(cnn5CCCN5C(=O)CCCC5=O)c4)ncc3F)cc2NC1=O [Compound 861, (S)-N2-[1-[3-(2,6-Dioxopiperidino]propyl)indazol-5-yl]-5-fluoro-N4-(2-methyl-3-oxo-2H,4H-benz[1,4]oxazin-6-yl)-2,4-pyrimidinediamine] | IC50 [4]: < 10 µM
24 | < 10 | < 10 |  | CC1(C)Oc2ccc(Nc3nc(Nc4ccc5c(cnn5CCCN5C(=O)CCCC5=O)c4)ncc3F)nc2NC1=O [Compound 862, N4-(2,2-Dimethyl-3-oxo-4H-5-pyrid[1,4]oxazin-6-yl)-N2-[1-[3-(2,6-dioxopiperidino]propyl)indazol-5-yl]-5-fluoro-2,4-pyrimidinediamine] | 
25 |  |  |  | Fc1cnc(Nc2ccc3[nH]c(C(F)(F)F)nc3c2)nc1Nc1ccc(Cl)c(Cl)c1 [Compound 864, N4-(3,4-Dichlorophenyl)-5-fluoro-N2-(2-trifluoromethyl-1H-benzimidazol-5-yl)-2,4-pyrimidinediamine Ethanesulfonic Acid Salt] | IC50 (Homo sapiens, Mast cell, read-out: LD Tryptase, CHMC, IgE, 3 pt): > 10 µM
26 |  |  |  | CCOCCCn1ncc2cc(Nc3ncc(F)c(Nc4ccc(OC)c(Cl)c4)n3)ccc21 [Compound 871, N4-(3-Chloro-4-methoxyphenyl)-N2-[1-(3-ethoxypropyl)indazol-5-yl]-5-fluoro-2,4-pyrimidinediamine] | IC50 [5]: < 10 µM; IC50 [6]: < 10 µM
27 |  |  |  | CCOCCCn1ncc2cc(Nc3ncc(F)c(Nc4ccc(Cl)c(Cl)c4)n3)ccc21 [Compound 872, N4-(3,4-Dichlorophenyl)-N2-[1-(3-ethoxypropyl)indazol-5-yl]-5-fluoro-2,4-pyrimidinediamine] | IC50 [5]: < 10 µM
28 |  |  |  | CCOCCCn1ncc2cc(Nc3ncc(F)c(Nc4ccc5c(c4)NC(=O)C(C)(C)O5)n3)ccc21 [Compound 873, N4-(2,2-Dimethyl-3-oxo-4H-benz[1,4]oxazin-6-yl)-N2-[1-(3-ethoxypropyl)indazol-5-yl]-5-fluoro-2,4-pyrimidinediamine] | IC50 [5]: < 10 µM; IC50 [6]: < 10 µM
